Test results from patent US10830762B2, “Compositions and methods for inducing conformational changes in cereblon and other E3 ubiquitin ligases” (Celgene Corporation, priority 2015, dated 2020).

Legend:
IKZF1 = molecular target: T1, IKZF1 (Homo sapiens, UniProt Q13422+Q96SW2); test: IKZF1 degradation in HEK293T cells co-transfected with wild-type or mutant CRBN; type: cell-based
T1 construct: expressed in transfected cells; host or cells: HEK293T cells

[1] = tested on: panel of tumor cell lines (B-lymphoma, breast, CNS, colon, kidney, leukemia, lung, melanoma, multiple myeloma, ovary, prostate); test: Potency across a panel of tumor cell lines; type: cell-based
Protocol: The potency of Compound C was assessed across a panel of tumor cell lines, including B-lymphoma, breast, CNS, colon, kidney, leukemia, lung, melanoma, multiple myeloma, ovary and prostate.

yeast homologue SUP35 = yeast homologue SUP35 (Saccharomyces cerevisiae, UniProt P05453); test: Compound-induced degradation of yeast homologue SUP35; type: cell-based; settings: yeast SUP35, in contrast to human GSPT1
GSPT1 [2] = molecular target: T2, GSPT1 (Homo sapiens, UniProt P15170+Q96SW2, E377V/V100A); test: GSPT1 degradation in HEK293T cells transfected with wild-type or mutant CRBN; type: cell-based; settings: human CRBN E377V
T2 construct: endogenous in cells; host or cells: HEK293T cells
From the text: (§1) A key feature of immunomodulatory drug biology is the striking resistance observed in rodent species. This feature was historically a confounding factor in establishing the efficacy and safety risks associated with thalidomide. It was shown that, in contrast to human cereblon, murine cereblon is unable to rescue immunomodulatory drug sensitivity. Chamberlain et al., Nature structural & mole. biol. 2014, 21:803-809. It was proposed that the molecular basis for this would lie in two variable residues on the cereblon surface proximal to the tri-Tryp pocket, E377V and V388I. […] Kronke et al., Nature 2015, 523:183-188. Despite the potent effect seen on human cells, murine cells are resistant to the antiproliferative and pro-apoptotic effects of Compound C (data not shown). […] The dependence of GSPT1 degradation upon E377 can be rationalized by the crystal structure: the side chain of E377 mediates hydrogen bond interactions with the urea moiety of Compound C.

GSPT1 [3] = molecular target: T3, GSPT1 (Homo sapiens, UniProt P15170+Q96SW2); test: as above; type: cell-based; settings: murine CRBN V377E
T3 construct: endogenous in cells; host or cells: HEK293T cells
From the text: as §1

GSPT1 [4] = molecular target: T4, GSPT1 (Homo sapiens, UniProt P15170+Q96SW2, V100A/V388I); test: as above; type: cell-based; settings: human CRBN V388I
T4 construct: endogenous in cells; host or cells: HEK293T cells
From the text: as §1

GSPT1 [5] = molecular target: T5, GSPT1 (Homo sapiens, UniProt P15170+Q96SW2, V100A); test: as above; type: cell-based; settings: human WT CRBN
T5 construct: endogenous in cells; host or cells: HEK293T cells
From the text: as §1

[6] = tested on: human GSPT1 (G575N mutation); test: Growth inhibition and activation of ATF4 and apoptosis pathways with GSPT1 G575N mutation; type: cell-based
[7] = tested on: MDA-MB-231 breast cancer cells; test: Growth inhibition and pro-apoptotic activity in breast cancer cells treated with CRBN siRNA; type: cell-based; settings: CRBN siRNA vs negative control
Protocol: Breast cancer cells (MDA-MB-231) were treated with CRBN siRNA or a negative control. Compound C was added at a concentration between 0 to 100 μM, and CRBN levels were assessed at 48 hours post treatment.
Compound C-mediated growth inhibition and pro-apoptotic activity were also assessed.

human GSPT1 [8] = molecular target: T6, human GSPT1 (Homo sapiens, UniProt P15170, G437N); test: Compound-induced GSPT1 degradation by Western blot in 293T HEK cells; type: cell-based; settings: GSPT1 G575N mutation
T6 construct: expressed in transfected cells; host or cells: 293T HEK cells
From the text: (§2) FIG. 28A illustrates a full-length human GSPT1 and a truncated mutant form, which lacks the N-terminal 138 amino acid residues. […] Thus, the truncated mutant human GSPT1 maintained the functionality of the full-length protein and can be used in studies below.
(§3) To determine the critical region in the human GSPT1 that contributes to the Compound C-induced degradation, a plethora of chimeric constructs containing various domains of human GSPT1 and yeast SUP35 were generated (FIG. 30A). These recombinant proteins were tested for Compound C-induced degradation by Western blot (FIGS. 30B-30D). As the results shown, a 32-amino acid fragment in the C-terminus of human GSPT1 (residues 562-593) is critical for Compound C-induced degradation.
(§4) To further map the essential amino acid residues in this 32-amino acid fragment of human GSPT1, various point mutations within the fragment were generated and tested for Compound C-induced degradation of GSPT1 and Compound C-induced interaction between CRBN and GSPT1. […] Among these homologues, only the yeast SUP35 is resistant to Compound C. […] Other mutations, […].

human GSPT1 [9] = molecular target: T7, human GSPT1 (Homo sapiens, UniProt P15170); test: as above; type: cell-based; settings: full-length and truncated (lacking N-terminal 138 residues) GSPT1
T7 construct: expressed in transfected cells; host or cells: 293T HEK cells
From the text: as §2, §3, §4

[10] = tested on: TMD8 (ABC) or Karpas 422 (GCB) cells; test: 3H-thymidine incorporation proliferation assay with lenalidomide co-treatment; type: cell-based; settings: co-treatment with 10 μM lenalidomide; 3H-thymidine incorporation
murine cells = test: Antiproliferative and pro-apoptotic effects on murine cells; type: cell-based; settings: murine cells (data not shown)
From the text: as §1

CRBN-GSPT1 = test: Compound-induced interaction (in vitro binding) of CRBN with GSPT1; design: species or system human
From the text: as §2, §4

CRBN = CRBN (Homo sapiens, UniProt Q96SW2); test: Thalidomide analog affinity bead competition assay in U266 cell extracts; type: binding; design: endogenous in cells; host or cells: U266 multiple myeloma cells (extract); settings: competition with thalidomide analog affinity beads
Protocol: (§5) Immunoblot analysis of extracts prepared from U266 multiple myeloma cells and pre-incubated with vehicle DMSO (D), Pomalidomide (Pom) or Compound C at the indicated concentrations, and bound to thalidomide analog affinity beads, washed and eluted with SDS buffer as previously described (Ito et al, 2010; Lopez-Girona et al, 2012). Samples were subjected to SDS-PAGE and immunoblot analysis using anti-CRBN 65-76 (1:10,000 dilution; Red signal) and anti-DDB1 (Cell Signaling) (1:2,000 dilution; Green signal). […] Cell proliferation assay of DF15 (sensitive), DF15R (resistant; CRBNnull) cells treated with a dose response of Compound C. Assays were done in triplicate and error bars represent s.d. Data for each cell line was normalized to treatment with vehicle (DMSO). […] Cell proliferation assay of DF15 (sensitive), DF15R (resistant; CRBNnull), DF15R-hCRBNWT (human CRBN), DF15R-RFP cells treated with a dose response of Compound C. […] Assays were done in triplicate and error bars represent s.d. Data for each cell line was normalized to treatment with vehicle (DMSO).
Coupling of thalidomide analog to FG-magnetic nanoparticle beads (Tamagawa Seiko Co. Tokyo, Japan) was carried out as described (Ito et al., Science, 2010. 327(5971):1345-50), and cell extract binding assays to these beads were performed with minor modifications. […]

[11] = tested on: DF15 / DF15R myeloma cells; test: Cell proliferation assay of DF15, DF15R and DF15R re-expressing CRBN treated with Compound C; type: cell-based
Protocol: as §5

[12] = tested on: H929 multiple myeloma cell line; test: Apoptosis in multiple myeloma cell line H929; type: cell-based; settings: 0.01 nM to 1000 nM; assessed 24 hrs later
Protocol: The multiple myeloma cell line, H929, was cultured and treated with Compound C or other CMA analogs at various concentrations from 0.01 nM to 1000 nM. Apoptosis was assessed at 24 hrs. later.

Cc1ccc(NC(=O)NCc2ccc3c(c2)CN(C2CCC(=O)NC2=O)C3=O)cc1Cl (stereo not drawn) [Compound C, 1-(3-chloro-4-methylphenyl)-3-((2-(2,6-dioxopiperidin-3-yl)-1-oxoisoindolin-5-yl)methyl)urea]
IKZF1 degradation (IKZF1; human CRBN V388I): blocks the degradation of IKZF1 | IKZF1 degradation (IKZF1; human WT CRBN): degradation of both IKZF1 and GSPT1 | Therapeutic Index ([1]; across the cancer cell panel): overall low Therapeutic Index | potency / activity in tumor cell lines ([1]; panel of tumor cell lines): potent across a panel of tumor lines | SUP35 degradation (yeast homologue SUP35): did not exhibit Compound C-induced degradation | GSPT1 degradation (GSPT1 [2]): blocks the degradation of GSPT1 | GSPT1 degradation (GSPT1 [3]): restores GSPT1 degradation | GSPT1 degradation (GSPT1 [4]): maintained | GSPT1 degradation (GSPT1 [5]): degradation of both IKZF1 and GSPT1 | growth inhibition and downstream activation of ATF4 and apoptosis pathways [6]: blocked Compound C-induced growth inhibition and Compound C-induced downstream activation of ATF4 and apoptosis pathways | CRBN dependence of growth inhibition and pro-apoptotic activity [7]: CRBN is required for both inhibition and pro-apoptotic activity | GSPT1 degradation (human GSPT1 [8]): blocked Compound C-induced degradation | GSPT1 degradation (human GSPT1 [9]): induced degradation of the full-length GSPT1 and the truncated form | anti-proliferative effects on co-treatment with lenalidomide [10]: blocks anti-proliferative effects | antiproliferative and pro-apoptotic effects (murine cells): resistant | interaction between CRBN and GSPT1 (CRBN-GSPT1; GSPT1 G575N mutation): blocked Compound C-induced interaction between CRBN and GSPT1 | interaction of CRBN with GSPT1 (CRBN-GSPT1; full-length and truncated GSPT1): induced interaction of CRBN with the full-length GSPT1 as well as the truncated GSPT1 | binding to CRBN protein in MM cell extracts (CRBN): binds CRBN protein | CRBN dependence of anti-proliferative activity ([11]; DF15 (sensitive) vs DF15R (CRBN null)): CRBN is required for the anti-proliferative activity | anti-proliferative activity after re-expression of human CRBN ([11]; DF15R-hCRBNWT): rescues Compound C anti-proliferative activity | early apoptosis [12]: induced early apoptosis
